Laboratory results as given in ChEMBL document CHEMBL1124516, “Synthesis of 2,3-diaziridinyl-1,4-naphthoquinone sulfonate derivatives as potential antineoplastic agents” (1989).

Assays:
Mus musculus [1] = assay: Number of mice survived for a period of greater than 50 days when a dose of 25 mg/Kg is administered intraperitoneally; tested in 10 mice; format: functional
Mus musculus [2] = assay: Average change in weight in mice bearing the L1210 Leukemia, when compound(30 mg/kg) was administered once daily beginning 24 hr after tumor implantation, for 6 consecutive days.; format: functional
Mus musculus [3] = assay: Number of mice survived for a period of greater than 50 days when a dose of 30 mg/Kg is administered intraperitoneally; tested in 10 mice; format: functional
Mus musculus [4] = assay: Average change in weight in mice bearing the B16 Melanoma, when compound(150 mg/kg) was administered beginning 24 hr after tumor implantation, daily once for 6 consecutive days.; format: functional
L1210 [5] = assay: Percentage survival time of L1210 (murine leukemia) inoculated mice following 30 mg/kg i.p.; format: functional, Mus musculus; conditions: route intraperitoneal
Mus musculus [6] = assay: Survival of mice bearing B16 melanoma cells greater than 50 days when treated with a dose of 150 mg/Kg administered intraperitoneally; tested in 5 mice; format: functional
Mus musculus [7] = assay: Average change in weight in mice bearing the B16 Melanoma, when compound(100 mg/kg) was administered beginning 24 hr after tumor implantation, daily once for 6 consecutive days.; format: functional
Mus musculus [8] = assay: The ratio of the survival time of treated to control animals x 100 in mice bearing B16 Melanoma, when compound (100 mg/kg) was administered intraperitoneally; format: functional
Mus musculus [9] = assay: Average change in weight in mice bearing the L1210 Leukemia, when compound (25 mg/kg) was administered once daily beginning 24 hr after tumor implantation, for 6 consecutive days.; format: functional
Mus musculus [10] = assay: Survival of mice bearing B16 melanoma cells greater than 50 days when treated with a dose of 50 mg/Kg administered intraperitoneally; tested in 5 mice; format: functional
L1210 [11] = assay: Percentage survival time of L1210 (murine leukemia) inoculated mice following 25 mg/kg i.p.; format: functional, Mus musculus; conditions: route intraperitoneal
Mus musculus [12] = assay: The ratio of the survival time of treated to control animals x 100 in mice bearing B16 Melanoma, when compound (150 mg/kg) was administered intraperitoneally; format: functional
Mus musculus [13] = assay: Average change in weight in mice bearing the L1210 Leukemia, when compound (20 mg/kg) was administered once daily beginning 24 hr after tumor implantation, for 6 consecutive days.; format: functional
L1210 [14] = assay: Percentage survival time of L1210 (murine leukemia) inoculated mice following 20 mg/kg i.p.; format: functional, Mus musculus; conditions: route intraperitoneal
Mus musculus [15] = assay: Number of mice survived for a period of greater than 50 days when a dose of 20 mg/Kg is administered intraperitoneally; tested in 10 mice; format: functional
Mus musculus [16] = assay: Average change in weight in mice bearing the B16 Melanoma, when compound(50 mg/kg) was administered intraperitoneally beginning 24 hr after tumor implantation, daily once for 6 consecutive days.; format: functional
Mus musculus [17] = assay: Survival of mice bearing B16 melanoma cells greater than 50 days when treated with a dose of 100 mg/Kg administered intraperitoneally; tested in 5 mice; format: functional
Mus musculus [18] = assay: The ratio of the survival time of treated to control animals x 100 in mice bearing B16 Melanoma, when compound (50 mg/kg) was administered intraperitoneally; format: functional
Mus musculus [19] = assay: Number of mice surviving for a period greater than 50 days when a dose of 30 mg/Kg is administered intraperitoneally; tested in 5 mice; format: functional
L1210 [20] = assay: Number L1210 (murine leukemia) inoculated mice surviving for >50 days following 25 mg/kg i.p.; format: functional, Mus musculus; conditions: route intraperitoneal
Mus musculus [21] = assay: Number of mice survived for a period greater than 50 days when a dose of 20 mg/Kg is administered intraperitoneally; tested in 5 mice; format: functional
Mus musculus [22] = assay: Number of mice survived for a period of greater than 50 days when a dose of 5 mg/Kg is administered intraperitoneally; tested in 5 mice; format: functional
Mus musculus [23] = assay: Number of mice survived for a period of greater than 50 days when a dose of 10 mg/kg is administered intraperitoneally; tested in 5 mice; format: functional; conditions: route intraperitoneal
Mus musculus [24] = assay: Average change in weight in mice bearing the L1210 Leukemia, when compound (10 mg/kg) was administered beginning 24 hr after tumor implantation, daily once for 6 consecutive days.; format: functional
Mus musculus [25] = assay: Number of mice survived for a period of greater than 50 days when a dose of 15 mg/kg is administered intraperitoneally; tested in 5 mice; format: functional; conditions: route intraperitoneal
Mus musculus [26] = assay: The ratio of the survival time of treated to control animals x 100 in mice bearing L1210 leukemia, when compound (5 mg/kg) was administered intraperitoneally; format: functional
Mus musculus [27] = assay: The ratio of the survival time of treated to control animals x 100 in mice bearing L1210 Leukemia, when compound (10 mg/kg) was administered intraperitoneally; format: functional
Mus musculus [28] = assay: Average change in weight in mice bearing the L1210 Leukemia, when compound (15 mg/kg) was administered beginning 24 hr after tumor implantation, daily once for 6 consecutive days.; format: functional
Mus musculus [29] = assay: Average change in weight in mice bearing the L1210 Leukemia, when compound (5 mg/kg) was administered beginning 24 hr after tumor implantation, daily once for 6 consecutive days.; format: functional
Mus musculus [30] = assay: The ratio of the survival time of treated to control animals x 100 in mice bearing L1210 Leukemia, when compound (15 mg/kg) was administered intraperitoneally; format: functional
Mus musculus [31] = assay: Survival of mice bearing B16 melanoma cells greater than 50 days when treated with a dose of 3 mg/Kg administered intraperitoneally; tested in 5 mice; format: functional
Mus musculus [32] = assay: The ratio of the survival time of treated to control animals x 100 in mice bearing L1210 leukemia, when compound (3 mg/kg) was administered intraperitoneally; format: functional
Mus musculus [33] = assay: Number of mice survived for a period of greater than 50 days when a dose of 3 mg/Kg is administered intraperitoneally; tested in 5 mice; format: functional
Mus musculus [34] = assay: Average change in weight in mice bearing the B16 Melanoma, when compound(3 mg/kg) was administered beginning 24 hr after tumor implantation, daily once for 6 consecutive days.; format: functional
Mus musculus [35] = assay: The ratio of the survival time of treated to control animals x 100 in mice bearing B16 Melanoma, when compound (3 mg/kg) was administered intraperitoneally; format: functional
Mus musculus [36] = assay: Average change in weight in mice bearing the L1210 Leukemia, when compound (3 mg/kg) was administered beginning 24 hr after tumor implantation, daily once for 6 consecutive days.; format: functional

SMILES | Average change in body weight (Mus musculus [2]) | Average change in body weight (Mus musculus [4]) | Activity (L1210 [5]) | Survivals (Mus musculus [6]) | Average change in body weight (Mus musculus [7]) | Activity (Mus musculus [8]) | Average body weight change (Mus musculus [9]) | Survivals (Mus musculus [10]) | Activity (L1210 [11]) | Activity (Mus musculus [12]) | Average change in body weight (Mus musculus [13]) | Activity (L1210 [14]) | Average body weight change (Mus musculus [16]) | Survivals (Mus musculus [17]) | Activity (Mus musculus [18]) | Survivals (Mus musculus [19]) | Survivals (L1210 [20]) | Survivals (Mus musculus [21]) | other results
Cc1ccc(S(=O)(=O)Oc2cccc3c2C(=O)C(N2CC2)=C(N2CC2)C3=O)cc1 | -7.4% | -9.8% | 248 | 0 | -1.9% | 153 | -3.5% | 0 | 490 | 141 | -2.2% | 155 | 4.5% | 0 | 144 | – | – | – | Survivals (Mus musculus [1]): 9; Survivals (Mus musculus [3]): 7; Survivals (Mus musculus [15]): 7
O=C1C(N2CC2)=C(N2CC2)C(=O)c2c(OS(=O)(=O)c3ccc(F)cc3)cccc21 | -3.4% | -20.3% | – | 0 | -14.3% | 182 | -5.7% | 0 | 200 | 177 | 0.3% | – | -5.2% | 0 | 159 | 5 | 4 | 5 | –
O=C1C(N2CC2)=C(N2CC2)C(=O)c2c(OS(=O)(=O)c3ccc(Br)cc3)cccc21 | 8.3% | 0.7% | 179 | – | 2.5% | 153 | 11.2% | – | 165 | 151 | 12.2% | 214 | 1.1% | – | 143 | 0 | 0 | 0 | –
O=C1C(N2CC2)=CC(=O)c2c(O)cccc21 | – | – | – | – | – | – | – | – | – | – | – | – | – | – | – | – | – | – | Survival (Mus musculus [22]): 0; Survival (Mus musculus [23]): 0; Average weight (Mus musculus [24]): 5.1%; Survival (Mus musculus [25]): 0; Activity (Mus musculus [26]): 231; Activity (Mus musculus [27]): 94; Average weight (Mus musculus [28]): 2.1%; Average weight (Mus musculus [29]): 12.7%; Activity (Mus musculus [30]): 90
O=C1C(N2CC2)=C(N2CC2)C(=O)c2c(OS(=O)(=O)c3ccccc3)cccc21 | -7% | -13.5% | 359 | 0 | -12.3% | 180 | -8.3% | 0 | – | 148 | -6.2% | – | -1.3% | 0 | 156 | 4 | 5 | 5 | –
O=C1C(N2CC2)=C(N2CC2)C(=O)c2c(OS(=O)(=O)c3ccc(I)cc3)cccc21 | 15.8% | -4.1% | 146 | – | 0.6% | 138 | 11.1% | – | 146 | 141 | 14.6% | 127 | 4.1% | – | 132 | 0 | 0 | 0 | –
O=C1C(N2CC2)=C(N2CC2)C(=O)c2c(OS(=O)(=O)c3ccc(Cl)cc3)cccc21 | -2.7% | -3.2% | 167 | 0 | -2.5% | 153 | 1.7% | 0 | 200 | 178 | 4.2% | 161 | 1.1% | 0 | 143 | 3 | 0 | 0 | –
CCOC(=O)NC1=C(N2CC2)C(=O)C(NC(=O)OCC)=C(N2CC2)C1=O [DIAZIQUONE] | – | – | – | – | – | – | – | – | – | – | – | – | – | – | – | – | – | – | Survivals (Mus musculus [31]): 0; Activity (Mus musculus [32]): 231; Survivals (Mus musculus [33]): 0; Average weight (Mus musculus [34]): -13.8%; Activity (Mus musculus [35]): 147; Average weight (Mus musculus [36]): -11.7%
